Data: US20040156816A1, “Lipid-drug complexes in reversed liquid and liquid crystalline phases” (priority 2002, published 2004)

Conditions: free acid ion-paired with arginine in Arlatone G / ginger oil / water cubic phase; overlain with large excess of water; two days
Excerpt: The antiosteolytic drug Alendronate (as the free acid) was incorporated into a cubic phase based on the ethoxylated, hydrogenated castor oil surfactant Arlatone G (from Uniquema).

amount of alendronate which leaked out of the cubic phase into the water: undetectable
SMILES: NCCCC(O)(P(=O)(O)O)P(=O)(O)O [alendronate, Alendronate]
